From paper PMC6934184, “Selective DNA-PKcs inhibition extends the therapeutic index of localized radiotherapy and chemotherapy” (The Journal of Clinical Investigation, 2019)

Molecular target: T1, ABL1 Y253F (Homo sapiens, UniProt P00519, Y253F)
T1 construct: purchased Thermo Fisher Scientific (Life Technologies) SelectScreen
Assay: SelectScreen Z'LYTE
Type: biochemical
Method in brief: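 Percent values come from Thermo SelectScreen profiling of NU5455, combining activity and binding assays. CSF1R was run in Z'LYTE format at Km app ATP, and CAMK1 in Adapta format with ATP listed at 10.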

For `CN(C(=O)CN1CCOCC1)c1ccc2sc3c(-c4cccc5c(=O)cc(N6CC7CCC(C6)O7)oc45)cccc3c2c1` [NU5455], the inhibition at 1 µM was 5.9%.
